{
  "source": "patent US5830910A",
  "about": "(priority 1995, dated 1998)",
  "key": {"[1]": {"test_system": "cultured hippocampal neurons", "assay": "cells", "format": "cell-based, rat", "description": "(§1) Dissociated embryonic rat hippocampal cell cultures were established and maintained. All procedures conformed with the NIH Guide for the Care and Use of Laboratory Animals and were approved by the University of Kentucky Animal Care and Use Committee. Cultures were maintained on a polyethyleneimine-coated substrate in plastic 35-mm dishes or 96 wall plates (for cell survival studies) or glass-bottom 35-mm dishes (for [Ca^2+ ]i imaging studies). The cell density was ^~ 70-100 cells/mm^2. Cells were maintained in Eagle's minimum essential medium supplemented 10% with fetal bovine serum and containing 20 mM sodium pyruvate. […] Aβ25-35 (Bachem, lot ZJ744) and Aβ1-40 (Bachem, lot ZK600) were stored in the lyophilized form, and stocks were prepared immediately before use by dissolving the peptide at a concentration of 1 mM in sterile distilled water. […] Glutamate and colchicine (Sigma) were prepared as 200-500x stocks in saline. Cytochalasins D and E (Sigma) and calcium ionophore 4-bromo-A23187 (Calbiochem) were prepared as 500x stocks in dimethyl sulfoxide. Vitamin E (α-tocopherol; Sigma) was prepared as a 500x stock in ethanol. Nordihydroguaiaretic acid and FeSo4 were prepared as 500x stocks in sterile water.\n(§2) Neuronal survival was quantified by counting viable neurons in the same microscope fields (10x objective) immediately before experimental treatment and at time points after treatment. In addition, cells were grown in 96-well plates and Alamar blue fluorescence (Alamar Laboratories)was quantified by using a fluorescence plate reader. Alamar Blue is a non-fluorescent substrate that, after reduction by cell metabolites, becomes fluorescent. Usually neurons that died in the time intervals (20-48 h) between examination points were absent. Viability of the remaining neurons was assessed by morphological criteria. Neutrons with intact neurites of uniform diameter and a soma with a smooth, round appearance were considered viable, whereas neurons with fragmented neurites and a vacuolated or swollen soma were considered nonviable. Survival values were expressed as percentages of the initial number of neurons present before experimental treatment. Statistical comparisons were made using ANOVA and Scheffe post-hoc tests for pairwise comparisons.\nFIG. 5. […] Cytochalasin D was added to cultures 30 min prior to exposure to glutamate, and control cultures were exposed to 0.2% dimethylsulfoxide.\n(A) Neuronal survival was quantified in cultures that had been pretreated with the indicated concentrations of cytochalasin D and then exposed to 50 μM glutamate for 20 h. Values represent the means and SEM of determinations made in four separate cultures. […] Pairwise statistical comparisons of cytochalasin-treated cultures with the control survival (Scheffe's test) indicated 1 nM cytochalasin D, P<0.05; 10 nM cytochalasin D, P<0.001; 100 and 1000 nM cytochalasin D, P<0.0001.\n(B) Neuronal survival was quantified in cultures that had been pretreated with either vehicle (control) or 100 nM cytochalasin D and then exposed to the indicated concentrations of glutamate for 20 h. Values represent the means and SEM of determinations made in four separate cultures. […] ANOVA with Scheffe's post hoc test.\nFIG. 6. (A) Cultures were pretreated with 100 nM cytochalasin D (CyD), 100 nM cytochalasin E (CyE), or 100 nM colchicine (Colch). Cultures were then exposed to 50 μM glutamate for 20 h. Values for neuronal survival represent the means and SEM of determinations made in four separate cultures. *P<0.001 compared to control value. **P<0.001 compared to value for cultures exposed to glutamate alone.\n[…] Values represent the means and SEM of determinations made in four separate cultures. *P<0.01 compared to value for cultures exposed to 20 μM glutamate alone. **P<0.05 compared to cultures exposed to 50 μM glutamate alone."}, "[2]": {"test_system": "cultured hippocampal neurons", "format": "cell-based, rat", "description": "as §1, §2\nFIG. 12. (A) Cultures were pretreated for 1 h with vehicle 0.2% dimethyl sulfoxide (Control) or 100 nM cytochalasin D (CyD) and were exposed to the indicated concentrations of Aβ25-35 for 48 h. Data are mean and SEM values of determinations made in four separate cultures.\n(B) Cultures were pretreated for 1 h with the indicated concentrations of cytochalasin D and then exposed to 50 μM Aβ25-35; parallel cultures were exposed to cytochalasin D alone (Control) . Data are mean and SEM values of determinations made in four separate cultures.\nFIG. 14. Cultures were exposed to 100 nM colchicine; 50 μM Aβ; 100 nM colchicine plus 50 μM Aβ; 100 nM cytochalasin E (CyE) plus Aβ (colchicine and cytochalasin E were added 1 h before Aβ); neuronal survival was assessed 48 h later. Data are mean and SEM values of determinations made in four separate cultures. *p<0.01, compared with values for control or colchicine alone. **p<0.01, compared with value for cultures exposed to Aβ alone."}, "[3]": {"test_system": "cultured hippocampal neurons", "assay": "iron (FeSO4) neurotoxicity", "format": "cell-based, rat", "description": "as §1, §2\nFIG. 8. Cultures were preincubated 1 h in the presence of 0.5% dimethylsulfoxide (control), 100 nM cytochalasin D, 50 μg/ml vitamin E (VitE), or 2 μM nordihydroguairetic acid (NDGA). Cultures were then exposed for 6 h to the indicated concentrations of FeSO4 and neuronal survival was quantified. Values represent the means and SEM of determinations made in four separate cultures. *P<0.001 compared to value for cultures exposed to 100 μM FeSO4 alone."}, "[4]": {"test_system": "cultured hippocampal neurons", "assay": "cells", "format": "cell-based, rat", "remark": "listed apart in the source"}, "[5]": {"test_system": "cultured hippocampal neurons", "assay": "cells", "format": "cell-based, rat", "details": "Rattus norvegicus, Hippocampal neuron", "description": "as §1, §2\nValues represent the means and SEM of 4 separate cultures (cell counts) or 4 culture wells (Alamar blue assay). ^a p<0.05 compared to control value. ^b p<0.001 compound to control value. ^c p<0.01 compared to value for glutamate-treated cultures. ^d p<0.005 compared to value for glutamate-treated cultures. ^e p<0.001 compared to value for Aβ-treated cultures. ^f p<0.001 compared to value for cultures treated with 20 μM glutamate. ^g p<0.001 compared to cultures treated with 50 μM Aβ+20 μM glutamate. n.d. not determined."}, "[6]": {"test_system": "neuronal [Ca^2+]i in cultured hippocampal neurons", "assay": "measurement of [Ca^2+]i, fura-2 imaging", "format": "cell-based, rat", "details": "10 μM, 3 h pretreatment; 50 μM glutamate", "description": "as §1\nFluorescence ratio imaging of the Ca^2+ indicator dye fura-2 was used to quantify [Ca^2+ ]i in neuronal somata. Cells were incubated for 30-40 min in the presence of 2 μM acetoxymethyl ester form of the [Ca^2+ ]i indicator dye fura-2 and were then washed twice (2 ml/wash) with fresh medium and allowed to incubate at least 40 min before imaging. Immediately before imaging, the normal culture medium was replaced with Hanks' balanced saline solution (GIBCO) containing 10 mM HEPES buffer and 10 mM of glucose. Cells were imaged using a Zeiss Attofluor system with a oil objective or Quantex system with a 40x oil objective. The ratio of the fluorescence emission using two different excitation wavelengths (334 and 380 nm) was used to determine [Ca^2+ ]i. The system was calibrated using solutions containing either no Ca^2+ or a saturating level of Ca^2+ (1 mM) according to the following formula: [Ca^2+ ]i =KD [(R-Rmin) / (Rmax -R)] (F0 /FS). Values represent the average [Ca^2+ ]i in the neuronal cell body. Experimental treatments were added to the bathing medium by dilution from 100-500x stocks.\n(A) Cultures were pretreated for 1 hr with 100 nM cytochalasin D and then [Ca^2+ ]i in neurons was monitored prior to and following exposure to 50 μM glutamate. The records represent the mean [Ca^2+ ]i in 8-12 neurons. Similar results were obtained in 4 separate experiments.\n(B) Aβ-induced potentiation of [Ca^2+ ]i response to glutamate is abrogated by cytochalasin D. Cultures were left untreated (Control) or were exposed to 20 μM Aβ25-35 for 6 hr or cytochalasin D plus Aβ25-35 for 6 hr. The [Ca^2+ ]i was then monitored prior to following exposure to 50 μM glutamate. Values represent the means of 8-14 neurons. Similar results were obtained in 3 separate experiments.\n(C) Cultures were pretreated for 3 hr with 50 μM Aβ alone or in combination with 100 nM cytochalasin D. The [Ca^2+ ]i in neurons was then monitored prior to and following exposure to 50 mM KCl. Values represent the mean of 14-23 neurons. Similar results were obtained in a separate experiment.\n(D) Cultures were pretreated for 1 h with 100 nM cytochalasin D. The [Ca^2+ ]i in neurons was measured immediately prior to, and at 5 min following, exposure to the indicated concentrations of glutamate. Values represent the means and SEM of determinations made in 17-26 neurons. *P<0.05 (10 μM glutamate), P<0.02 (50 μM glutamate), P<0.01 (100 μAM glutamate) compared to corresponding control values.\nFIG. 9. Cultures were pretreated for 3 h with vehicle (control) or 10 μM jasplakinolide. The [Ca^2+ ]i was monitored prior to and following exposure to 50 μM glutamate. Values represent the mean of determinations made in 10-12 neurons. Similar results were obtained in two additional experiments.\nFIG. 10. […]"}, "[7]": {"test_system": "hippocampal region CA3 neurons", "assay": "kainate lesion paradigm, CA3 neurons", "format": "in vivo, rat (Sprague-Dawley)", "experimental": "A kainate lesion paradigm was employed in adult rats to determine whether cytochalasin D was also excitoprotective. Twenty-four adult male Sprague-Dawley rats (250-300 g) were divided into the indicated experimental groups (4-5 rats/group). Kainate (0.5 µg/[…]) was injected stereotaxically into region CA1 of the right hippocampus of anesthetized rats. Cytochalasin D (the indicated concentration in 1 μl of saline-1% DMSO) or vehicle was infused into the right lateral ventricle during a 5-10 min period immediately following kainate injection. Rats were killed 48 hr later and perfused transcardially with 4% paraformaldehyde. Brain sections (30 μm) were stained with cresyl violet and stained neurons in three adjacent 40X microscope fields of hippocampal region CA3 were counted (5 sections/rat) . The neuronal counts were performed in sections removed approximately 200-400 μm from the injection site. This method results in highly reproducible, 75-99%, neuronal loss in the CA3 region in over 99% of the rats injected with kainate (calculations based on 302 rats receiving intra-hippocampal kainate). […] Approximately 80% of the neurons were killed by kainate in control animals receiving an intracerebroventricular infusion of saline immediately following kainate administration.\nCresyl violet-stained coronal sections from brains of rats administered kainate alone (left) of kainate plus cytochalasin D (CyD; right). […] Lower micrographs are high magnification of a region of CA3 from the sections shown in the upper panels.\nFIG. 3. Counts of viable neurons were made in region CA3 of Sham-operated rats, and rats infused intraventricularly with vehicle or increasing concentration of cytochalasin D […] unilateral kainate injection into region CA1 of the hippocampus. Neuronal survival in the kainate injected hippocampus is expressed as a percentage of neurons in the contralateral hippocampus. Values represent the mean and SEM (4 or 5 rats/group). *p<0.01 compared to value for sham rats. **p<0.01 compared to value for vehicle-infused rats. (ANOVA with Scheffe's post-hoc test)."}, "[8]": {"details": "read-out: Neuron Survival (% of control), Alamar Blue Assay"}},
  "note": "Read-outs that look alike come from different tables or passages of the source.",
  "data": [
    {"smiles": "C[C@H]1C/C=C/[C@H]2[C@@H]3O[C@]3(C)[C@@H](C)[C@H]3[C@H](Cc4ccccc4)NC(=O)[C@]32OC(=O)O/C=C/[C@@](C)(O)C1=O", "note": "[Cytochalasin E, cytochalasin E]", "values": [
      {"measurement": "protection against glutamate toxicity", "setting": "[1]; 100 nM, 50 μM glutamate, 20 h", "result": "significant protection against glutamate toxicity"},
      {"measurement": "protection against toxicity of glutamate", "setting": "[1]; 10-100 nM", "result": "protected"},
      {"measurement": "effect on Aβ neurotoxicity", "setting": "[2]; 100 nM, added 1 h before 50 μM Aβ, 48 h", "result": "attenuated Aβ neurotoxicity significantly"},
      {"measurement": "protection against toxicity of Aβ", "setting": "[2]; 10-100 nM", "result": "protected"}
    ]},
    {"smiles": "O=S(=O)([O-])[O-].[Fe+2]", "note": "[FeSo4]", "values": [
      {"measurement": "loss of neurons", "setting": "[3]; FeSO4 10-100 nM as printed, 6 h", "result": "concentration-dependent loss of neurons"}
    ]},
    {"smiles": "N[C@@H](CCC(=O)O)C(=O)O", "note": "[Glutamate, glutamate, reference compound]", "values": [
      {"measurement": "CC50", "setting": "[1]; Rattus norvegicus, Hippocampal neuron, 20 h, read-out: ED50 for reduction in neuronal survival", "result": "~35", "unit": "µM"},
      {"measurement": "cytotoxicity at 100 µM", "setting": "[1]; Rattus norvegicus, Hippocampal neuron, 20 h, read-out: maximum killing of neurons", "result": "> 80", "unit": "%"},
      {"measurement": "cytotoxicity at 50 µM", "setting": "[1]; Rattus norvegicus, Hippocampal neuron, 20 h, read-out: neurons killed", "result": "> 70", "unit": "%"},
      {"measurement": "viability at 100 µM", "setting": "[4]; Rattus norvegicus, Hippocampal neuron, 24 h, read-out: neuronal survival in cultures exposed to glutamate", "result": "< 20", "unit": "%"},
      {"measurement": "viability at 20 µM", "setting": "[5]; [8]", "result": "74 ± 0.7", "unit": "%"},
      {"measurement": "viability at 100 µM", "setting": "[5]; [8]", "result": "18 ± 5.4", "unit": "%"},
      {"measurement": "viability at 100 µM", "setting": "[5]; read-out: Neuron Survival (% of control), Cell Counts", "result": "15 ± 3.3", "unit": "%"}
    ]},
    {"smiles": "CC1=CC(C)CC(C)OC(=O)CC(c2ccc(O)cc2)NC(=O)C(Cc2c(Br)[nH]c3ccccc23)N(C)C(=O)C(C)NC(=O)C(C)C1", "note": "(centres unmarked) [Jasplakinolide, jasplakinolide, reference compound]", "values": [
      {"measurement": "effect on glutamate-induced elevation of [Ca^2+]i", "setting": "[6]", "result": "potentiated"},
      {"measurement": "effect on glutamate neurotoxicity", "setting": "[4]; preincubated 3 h, 10 μM (FIG. 6B legend: 1 h, 5 μM)", "result": "significantly potentiated"}
    ]},
    {"smiles": "C=C(C)[C@H]1CN[C@H](C(=O)O)[C@H]1CC(=O)O", "note": "[Kainate, kainate, reference compound]", "values": [
      {"measurement": "neurons killed by kainate", "setting": "[7]; control animals receiving i.c.v. saline, 48 hr", "result": "Approximately 80%"},
      {"measurement": "neuronal loss in the CA3 region", "setting": "[7]; intrahippocampal kainate, over 99% of rats (302 rats)", "result": "75-99%"}
    ]},
    {"smiles": "CC(Cc1ccc(O)c(O)c1)C(C)Cc1ccc(O)c(O)c1", "note": "(centres unmarked) [nordihydro-guaiaretic acid, Nordihydroguaiaretic acid]", "values": [
      {"measurement": "effect on neurotoxicity of iron", "setting": "[3]; 50 μg/ml vitamin E or 2 μM NDGA, 1 h preincubation", "result": "completely blocked"}
    ]}
  ]
}
